Assay results: patent publication US11026943B2, “Aminoquinoline derivatives and uses thereof” (UNIVERSITY OF DELHI, priority 2012, dated 2021)

Assays:
Nurr1 LBD = Nurr1 LBD (Mus musculus, UniProt Q06219); assay: Fluorescence quenching assay, Nurr1-LBD; format: binding; details: increasing amounts of AQ, 0.1 nM-1 μM
Procedure: Fluorescence spectra were measured using a SHIMADZU fluorescence spectrophotometer (model RF-5310PC, SHIMADZU). The proteins (15 ng/μl) were incubated with different concentrations of AQ or kanamycin (0.1 nM, 1 nM, 10 nM, 100 nM and 1 μM in PBS buffer, pH7.0). Protein quenching was monitored at 25° C. by using 5 nm of excitation and 5 nm of emission slit-width. The excitation wavelength was 280 nm, and the emission spectra were measured between 290 and 430 nm.

[1] = system: murine microglial BV-2 cells; format: cell-based, mouse; details: 10 ng/ml LPS for 4 hrs, AQ 10 and 15 μM
Procedure: To prepare primary cultures of DA neurons, the ventral mesencephalon was removed from 14 day gestation Sprague Dawley rat embryo (Charles River, Cambridge, Mass.). Tissues were incubated with 0.01% trypsin in MEM (MEM, Invitrogen) for 10 min at 37° C. and triturated using a constricted Pasteur pipette. DA neurons were plated at 1.0×10^5 cells per 9 mm diameter glass cover slip precoated with 100 μg/ml poly-D-lysine (Sigma, St. Louis, Mo.) and 4 μg/ml laminin (Invitrogen). DA neurons were maintained at 37° C. in a humidified 5% CO2 atmosphere in minimum essential medium supplemented with 10% FBS (Hyclone), 2 mM glutamine and 6.0 g/l glucose. At 5 or 6 days in vitro, DA neurons were washed with MEM and treated with various experimental reagents for the time periods indicated. Reagents used were 6-OHDA (Sigma), N-acetyl-cysteine, N-benzyloxycarbonyl-Val-Ala-Asp-fluoromethylketone (Z-VAD-fink; Enzyme Systems Products, Livermore, Calif.). BV-2 cells, a microglial-like mouse cell line, were thawed and passaged until logarithmic growth was achieved. Cell cultures were maintained in 6-well culture plate (Corning Costar, Corning, N.Y.) at a concentration of 1.0×10^5 cells per well, in the growth medium consisting of DMEM (Sigma, St. Louis, Mo.), supplemented with 10% fetal bovine serum (FBS; Hyclone) heat inactivated at 56° C. for 30 min, 2 mM L-glutamine(Sigma) and 1× Pen-Strep (Invitrogen). […]

6-OHDA-lesioned rats = assay: 6-OHDA-lesioned rat model of PD (amphetamine rotation, TH+ and Iba-1 counts); format: in vivo
Procedure: Cells were fixed in 4% paraformaldehyde (PFA) for 20 min, washed and then incubated with blocking buffer [PBS, 10% goat serum (Invitrogen), 0.3% Triton X-100 (Sigma)] for 1 hour. Cells were then incubated overnight at 4° C. with primary antibodies with the primary antibody in PBS containing 1% normal goat serum and 0.1% Triton X-100. A rabbit polyclonal anti-TH antibody (1:500; Pel-Freez, Rogers, Ark.) was used as a primary antibody. Following washes with PBS, appropriate fluorescence-tagged secondary antibodies (Jackson Immunoresearch Laboratories, West Grove, Pa.) were used for visualization. Stained samples were mounted in […] with DAPI mounting solution (Vector Laboratories INC., Burlingame, Calif.) and photographed using epifluorescence microscope (Leica). […] The tissues were washed three times in PBS and incubated for 2 h with the secondary fluorescence-conjugated goat anti-mouse and rabbit antibody (DAKO, Denmark, Cy3, FITC, both dilutions at 1:1,000) and tissues were washed and mounted in Vectorshield. […] Tissues were visualized using fluorescence microscopy. […] The protection percentage of total TH^+ cells in the lesioned hemisphere of each rat brain was calculated by dividing total TH^+ cells in the intact hemisphere of each rat brain and multiplying […]. […]

Sequence of Nurr1 LBD (Q06219 328-598): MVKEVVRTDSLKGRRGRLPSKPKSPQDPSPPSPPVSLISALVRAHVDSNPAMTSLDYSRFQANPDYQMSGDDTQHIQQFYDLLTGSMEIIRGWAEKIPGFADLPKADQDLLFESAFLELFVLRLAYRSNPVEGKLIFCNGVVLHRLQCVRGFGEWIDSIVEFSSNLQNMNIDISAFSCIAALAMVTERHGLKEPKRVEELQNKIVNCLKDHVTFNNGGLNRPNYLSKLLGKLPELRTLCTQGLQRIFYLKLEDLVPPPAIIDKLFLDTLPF

Compound: CCN(CC)Cc1cc(Nc2ccnc3cc(Cl)ccc23)ccc1O [AQ, amodiaquine]
- fluorescence quenching of Nurr1-LBD (Nurr1 LBD): fluorescence intensity gradually decreased
- LPS-induced expression of pro-inflammatory cytokines [1]: suppresses
- 6-OHDA-induced (amphetamine) rotation behavior (6-OHDA-lesioned rats; 4 and 6 weeks post lesion, AQ 20 mg/kg i.p. twice per day, 2 weeks): significantly ameliorated
- numbers of Iba-1+ microglia in ipsilateral SN and STR (6-OHDA-lesioned rats; after AQ treatment): decreased to the levels of the contralateral sides
